Where a name gives a salt, the structure may show the parent alone.
Legend:
human C1s = target: T1, human C1s (Homo sapiens, UniProt P09871); assay: Human C1s enzyme assay; type: biochemical
T1 construct: Recombinant human C1s (358–688 aa) fused with both the N-terminal IgG signal peptide; IgG signal peptide (N); His tag (C); made in house; host or cells: HEK293 cells
T1 sequence (P09871 358-688): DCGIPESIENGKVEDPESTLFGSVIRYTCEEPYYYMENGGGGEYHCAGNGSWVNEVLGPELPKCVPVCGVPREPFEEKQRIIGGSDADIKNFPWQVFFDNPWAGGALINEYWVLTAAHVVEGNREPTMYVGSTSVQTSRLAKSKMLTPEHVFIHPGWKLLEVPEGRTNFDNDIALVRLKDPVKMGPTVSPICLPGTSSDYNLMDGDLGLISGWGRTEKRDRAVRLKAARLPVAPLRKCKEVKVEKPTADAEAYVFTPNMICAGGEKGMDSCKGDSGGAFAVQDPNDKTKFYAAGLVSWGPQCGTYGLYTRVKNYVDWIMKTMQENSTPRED
Method: Recombinant human C1s (358–688 aa) fused with both the N-terminal IgG signal peptide and the C-terminal His tag was expressed in HEK293 cells and purified. The assay was performed in a 384-well clear plate in a total volume of 20 μL of an assay buffer 1 [50 mmol/L Tris–HCl (pH 7.5), 150 mmol/L NaCl, 0.01% (w/v) Tween 20, and 0.01% (w/v) BSA]. Compounds were dissolved in DMSO and diluted to various concentrations. After 20 nL of compound solution was added to the plate, 10 μL of substrate solution containing a 250 μmol/L Z-Lys-SBzl peptide (Watanabe Chemical, Hiroshima, Japan) and 250 μmol/L DTNB (5,5′-dithiobis(2-nitrobenzoic acid)) (Sigma, MO, USA) was added to the plate. Then, 8 nmol/L human C1s was added to the plate and incubated at room temperature for 60 min. The absorbance at 405 nm was detected using an EnVision multilabel plate reader. […] The IC50 values were calculated using IDBS XLfit software.

[1] = likely due to the basic amidine moiety; cited from earlier work
human C1r = target: T2, human C1r (Homo sapiens, UniProt P00736); assay: Human C1r enzyme assay; type: biochemical
T2 construct: Recombinant human C1r (375–705 aa) fused with both the N-terminal IgG signal peptide; IgG signal peptide (N); His tag (C); made in house; host or cells: HEK293 cells
T2 sequence (P00736 375-705): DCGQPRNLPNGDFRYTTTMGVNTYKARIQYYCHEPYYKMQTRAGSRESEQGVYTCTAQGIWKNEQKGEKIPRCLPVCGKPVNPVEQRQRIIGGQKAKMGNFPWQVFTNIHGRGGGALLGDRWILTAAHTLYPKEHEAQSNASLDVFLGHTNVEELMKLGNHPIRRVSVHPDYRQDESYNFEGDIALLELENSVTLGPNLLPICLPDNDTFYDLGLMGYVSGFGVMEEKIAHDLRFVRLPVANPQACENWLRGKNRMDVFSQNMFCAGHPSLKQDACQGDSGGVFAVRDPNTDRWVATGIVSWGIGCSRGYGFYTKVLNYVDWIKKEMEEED
Description: Recombinant human C1r (375–705 aa) fused with both the N-terminal IgG signal peptide and the C-terminal His tag was expressed in HEK293 cells and purified. Human C1r assay conditions were the same as for human C1s, except that the enzyme solution concentration was 3 nmol/L and the substrate peptide was 250 μmol/L Z-Gly-Arg-SBzl (custom synthesis from Peptide Institute, Osaka, Japan) instead of Z-Lys-SBzl.

human MASP2 = target: T3, human MASP2 (Homo sapiens, UniProt O00187); assay: Human MASP2 enzyme assay; type: biochemical
T3 construct: Recombinant human MASP2 (298–686 aa) fused with both the N-terminal IgG signal peptide; IgG signal peptide (N); His tag (C); made in house; host or cells: Expi293 cells
Method: Recombinant human MASP2 (298–686 aa) fused with both the N-terminal IgG signal peptide and the C-terminal His tag was expressed in Expi293 cells and purified. The assay was performed in a 384-well black plate in a total volume of 6 μL of the assay buffer 1. After 20 nL of compound solution was added to the plate, 3 μL of substrate solution containing a 20 μmol/L Z-Gly-Arg-SBzl peptide and 20 μmol/L BES-Thio (FUJIFILM Wako, Osaka, Japan) was added to the plate. Then, 0.6 nmol/L human MASP2 was added to the plate and incubated at room temperature for 60 min. The fluorescence at an excitation wavelength of 485 nm and an emission wavelength of 535 nm was detected using an EnVision multilabel plate reader.

human factor D = target: T4, human factor D (Homo sapiens, UniProt P00746); assay: Human factor D enzyme assay; type: biochemical
T4 construct: Recombinant human factor D (26–253 aa) fused with both the N-terminal IgG signal peptide; IgG signal peptide (N); His tag (C); made in house; host or cells: Expi293 cells
Description: Recombinant human factor D (26–253 aa) fused with both the N-terminal IgG signal peptide and the C-terminal His tag was expressed in Expi293 cells and purified. The human factor D assay condition was the same as for human MASP2, except that the enzyme solution concentration was 20 nmol/L and the substrate solution contained a 400 μmol/L Z-Lys-SBzl peptide and 50 μmol/L BES-Thio.

human thrombin = target: T5, human thrombin (Homo sapiens, UniProt P00734); assay: Human thrombin enzyme assay; type: biochemical
T5 construct: purchased AnaSpec
Method: The human thrombin enzyme activity was determined by a SensoLyte 520 thrombin activity assay kit (AnaSpec, CA, USA). Purified human thrombin and the substrate were diluted in the assay buffer 1. After 20 nL of compound solution was added to a 384-well black plate, 3 μL of the 2 μmol/L 5-FAM/QXLTM 520 thrombin substrate was added to the plate. Then, 8 nmol/L human thrombin was added to the plate and incubated at room temperature for 60 min. The fluorescence at an excitation wavelength of 485 nm and an emission wavelength of 535 nm was detected using an EnVision multilabel plate reader.

human trypsin = assay: Human trypsin enzyme assay; type: biochemical
Method: Recombinant human trypsin (FUJIFILM Wako, Osaka, Japan) and the substrate were diluted in an assay buffer [50 mmol/L Tris–HCl (pH 7.5), 145 mmol/L NaCl, 2 mmol/L CaCl2, and 0.01% (w/v) Tween 20]. After 20 nL of compound solution was added to a 384-well black plate, 3 μL of substrate solution containing 25 μmol/L Boc-Phe-Ser-Arg-MCA (Peptide Institute, Osaka, Japan) was added to the plate. Then, 6 mU/mL human trypsin was added to the plate and incubated at room temperature for 60 min. The fluorescence at an excitation wavelength of 360 nm and an emission wavelength of 460 nm was detected using an EnVision multilabel plate reader.

PAMPA = type: in vitro ADME
Method: A PAMPA Evolution system (pION) was applied for the assay. After incubating the test compound (10 μmol/L) for 3 h at 25 °C, the permeation coefficient value was calculated with determining the test compound by LC/MS/MS.

[2] = target: T6, Human Multidrug Resistance 1 (MDR-1) Expressing Cells (Homo sapiens, UniProt P08183); assay: Membrane permeability with human MDR-1 expressing cells; type: in vitro ADME; settings: supplementary csv
T6 construct: expressed in transfected cells
Method: (§1) The transcellular transport study was performed as reported previously.[31] In brief, the cells were grown in an HTS Transwell 96-well permeable support (pore size of 0.4 μm, 0.143 cm^2 surface area) with a polyethylene terephthalate membrane (Corning Life Sciences, Lowell, MA, USA) at a density of 1.125 × 10^5 cells/well. The cells were preincubated with M199 at 37 °C for 30 min. Subsequently, transcellular transport was initiated by the addition of M199 to apical compartments containing 1 μmol/L test compounds and terminated by the removal of each assay plate after 2 h. The aliquots in the opposite compartments were subjected to measurement for compound concentration by LC–MS/MS. Permeability was calculated using the permeated compound concentration.

MDR1 (P-gp) = target: T7, MDR1 (P-gp) (Homo sapiens, UniProt P08183); assay: as above; type: in vitro ADME; settings: human; MDR1-expressing cells, 1 μmol/L, 2 h
T7 construct: expressed in transfected cells
Method: as §1

[3] = 95% confidence intervals in parentheses

T4 sequence (P00746 26-253): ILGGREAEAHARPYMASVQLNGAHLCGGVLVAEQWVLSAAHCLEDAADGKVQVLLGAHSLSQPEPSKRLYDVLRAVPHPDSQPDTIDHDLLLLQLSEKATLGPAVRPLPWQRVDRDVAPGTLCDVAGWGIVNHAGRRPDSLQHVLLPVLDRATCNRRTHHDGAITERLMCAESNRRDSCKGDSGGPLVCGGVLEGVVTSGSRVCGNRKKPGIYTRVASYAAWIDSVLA
T3 sequence (O00187 298-686): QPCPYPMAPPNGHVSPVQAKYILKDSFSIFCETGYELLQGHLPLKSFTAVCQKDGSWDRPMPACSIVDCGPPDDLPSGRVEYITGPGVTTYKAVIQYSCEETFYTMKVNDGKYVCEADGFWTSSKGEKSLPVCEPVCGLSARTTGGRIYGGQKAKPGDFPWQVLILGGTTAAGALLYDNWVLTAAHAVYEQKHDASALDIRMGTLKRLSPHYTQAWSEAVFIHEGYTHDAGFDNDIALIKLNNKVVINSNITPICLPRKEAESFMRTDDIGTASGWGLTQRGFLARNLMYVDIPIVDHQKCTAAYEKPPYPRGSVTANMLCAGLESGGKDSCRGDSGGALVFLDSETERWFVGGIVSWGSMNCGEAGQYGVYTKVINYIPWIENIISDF

| Structure (SMILES) | IC50 (human C1s; [3]) [nM] | further results |
| --- | --- | --- |
| Cc1cc([C@@H]2CN(c3cc(F)c4c(N)nncc4c3)CCN2c2cccc(F)c2)no1 [(S)-8, 8-Fluoro-6-[(3S)-4-(3-fluorophenyl)-3-(5-methyl-1,2-oxazol-3-yl)piperazin-1-yl]phthalazin-1-amine] | > 300000 | – |
| CSc1sc(C(=N)N)cc1S(=O)(=O)c1cccc(-c2c(C)cccc2NC(=O)CCCS(C)(=O)=O)c1 [Compound 1] | – | in vivo pharmacokinetics (PK) properties [1]: poor |
| Cc1ccc(C(=O)N2CCN(c3ccc4c(N)nccc4c3)CC2)cc1 [Compound 4b, [4-(1-Aminoisoquinolin-6-yl)piperazin-1-yl](4-methylphenyl)methanone] | 96000 | – |
| Cc1ccc(C(=O)N2CCN(c3ccc4c(N)nncc4c3)CC2)cc1 [Compound 4c, [4-(1-Aminophthalazin-6-yl)piperazin-1-yl](4-methylphenyl)methanone] | 2500 | – |
| Cc1ccccc1C(=O)N1CCN(c2ccc3c(N)nncc3c2)CC1 [Compound 4e, [4-(1-Aminophthalazin-6-yl)piperazin-1-yl](2-methylphenyl)methanone] | – | IC50 (human C1s; supplementary csv): 4500 nM; IC50 (human C1r): > 30000 nM; IC50 (human MASP2): > 30000 nM; IC50 (human factor D): > 30000 nM; IC50 (human thrombin): > 30000 nM; IC50 (human trypsin): > 30000 nM |
| Nc1nncc2cc(N3CCN(C(=O)c4ccccc4)CC3)ccc12 [Compound 4f, [4-(1-Aminophthalazin-6-yl)piperazin-1-yl](phenyl)methanone] | 5100 | – |
| Nc1nncc2cc(N3CCC(c4ccccc4)CC3)ccc12 [Compound 5b, 6-(4-Phenylpiperidin-1-yl)phthalazin-1-amine Trifluoroacetic Acid Salt] | 4200 | – |
| Nc1nncc2cc(C3CCN(c4ccccc4)CC3)ccc12 [Compound 5c, 6-(1-Phenylpiperidin-4-yl)phthalazin-1-amine] | > 30000 | – |
| Cc1cccc(N2CCN(c3ccc4c(N)nncc4c3)CC2)c1 [Compound 5e, 6-[4-(3-Methylphenyl)piperazin-1-yl]phthalazin-1-amine] | 560 | – |
| Nc1nncc2cc(N3CCN(c4cccc(F)c4)CC3)ccc12 [Compound 5g, 6-[4-(3-Fluorophenyl)piperazin-1-yl]phthalazin-1-amine] | 370 | – |
| Nc1nncc2cc(N3CCN(c4cccc(Cl)c4)CC3)ccc12 [Compound 5h, 6-[4-(3-Chlorophenyl)piperazin-1-yl]phthalazin-1-amine Trifluoroacetic Acid Salt] | 390 | – |
| COc1cccc(N2CCN(c3ccc4c(N)nncc4c3)CC2)c1 [Compound 5i, 6-[4-(3-Methoxyphenyl)piperazin-1-yl]phthalazin-1-amine] | 1400 | – |

Now from value to molecule, other results behind:

| IC50 (human C1s; [3]) [nM] | Structure (SMILES) | further results |
| --- | --- | --- |
| 820 | C[C@@H]1CN(c2ccc3c(N)nncc3c2)CCN1c1cccc(F)c1 [(R)-6, 6-[(3R)-4-(3-Fluorophenyl)-3-methylpiperazin-1-yl]phthalazin-1-amine] | – |
| 170 | C[C@H]1CN(c2ccc3c(N)nncc3c2)CCN1c1cccc(F)c1 [(S)-6, 6-[(3S)-4-(3-Fluorophenyl)-3-methylpiperazin-1-yl]phthalazin-1-amine] | – |
| > 300000 | Cc1ccc(C(=O)N2CCN(c3ccc4cnncc4c3)CC2)cc1 [Compound 4d, (4-Methylphenyl)[4-(phthalazin-6-yl)piperazin-1-yl]methanone] | – |
| 580 | Nc1nncc2cc(N3CCN(c4ccccc4)CC3)ccc12 [Compound 5a, 6-(4-Phenylpiperazin-1-yl)phthalazin-1-amine Trifluoroacetic Acid Salt] | – |
| 1200 | Cc1ccccc1N1CCN(c2ccc3c(N)nncc3c2)CC1 [Compound 5d, 6-[4-(2-Methylphenyl)piperazin-1-yl]phthalazin-1-amine Trifluoroacetic Acid Salt] | – |
| 6700 | Cc1ccc(N2CCN(c3ccc4c(N)nncc4c3)CC2)cc1 [Compound 5f, 6-[4-(4-Methylphenyl)piperazin-1-yl]phthalazin-1-amine] | – |
| 1400 | N#Cc1cccc(N2CCN(c3ccc4c(N)nncc4c3)CC2)c1 [Compound 5j, 3-[4-(1-Aminophthalazin-6-yl)piperazin-1-yl]benzonitrile] | – |
| 7.1 | Cc1cc([C@H]2CN(c3ccc4c(N)nncc4c3)CCN2c2cccc(F)c2)no1.O=C(O)C(F)(F)F [Compound (R)-7, 6-[(3R)-4-(3-Fluorophenyl)-3-(5-methyl-1,2-oxazol-3-yl)piperazin-1-yl]phthalazin-1-amine Trifluoroacetic Acid Salt] | Papp at 3 h, 10 μmol/L (PAMPA; PAMPA, pH 7.4): 1.9 ×10⁻⁶ cm/s; PAMPA at pH 7.4 (nm/sec) (PAMPA; supplementary csv): 19 nm/sec; MDR1 (A to B) [2]: 3 nm/s; Papp A→B at 2 h, 1 μmol/L (MDR1 (P-gp)): 0.3 ×10⁻⁶ cm/s |

Source: PMC10184130
